How the values were obtained:
Rabbits [1] = experiment: Toxic reaction test: 15-day daily intravenous injection in rabbits (renal); format: in vivo; details: 250 mg/kg intravenously daily for 15 days
Procedure: (§1) The novel crystalline form of Cefamandole Nafate compound of the present invention was tested by toxic reaction tests shown as follows (taking the crystalline form of Cefamandole Nafate obtained in Example 1 for example):
Rabbits were divided into 2 groups, every 4 animals in each group, and daily intravenously injected with 250 mg/kg Cefamandole Nafate for 15 days, while the control group was injected with 5 ml saline per day.

Rabbits [2] = format: in vivo
Procedure: as §1
Rabbits were injected with 0.4˜2.1 g of Cefamandole Nafate each time with the interval of 15 min, and recording the changes of blood pressure and electrocardiogram.

[3] = Toxic reaction test: acute toxicity (LD50) in rats; details: rat, in vivo, intravenous injection
Procedure: as §1
(§2) Mice were divided into 4 dose groups by weights, every 10 animals in each group, and administered by intravenous injection, subcutaneous injection and intraperitoneal injection with a concentration of […].

[4] = Storage stability of the crystalline product; format: physicochemical
Procedure: Said method has the following advantageous effects: simple procedure, easy operation, and low energy consumption. The prepared product has a melting range of 160˜170° C. with good thermal stability, and is conducive to the long-term preservation. […] The product is easy to crush and processed into dosage forms of a pharmaceutical composition, as well as low cost, and easier to implement on commercial and industrial scale.

[5] = Toxic reaction test: acute toxicity (LD50) in mice; details: mouse, in vivo
Procedure: as §1, §2

[6] = anesthetized rabbits, intravenous injection, 0.4~2.1 g each time
[7] = rabbits, dosage up to 4800 mg/kg

| Compound | renal tissue concentration (Rabbits [1]) | renal toxicity (Rabbits [1]) | breathing (Rabbits [2]; [6]) | electrocardiogram and heart rate (Rabbits [2]; [6]) | death (Rabbits [2]; rabbits, dosage further increased above 4800 mg/kg) | blood pressure (Rabbits [2]; [7]) | electrocardiogram (Rabbits [2]; [7]) | respiration (Rabbits [2]; [7]) | LD50 [3] | degradation after placing for a long time [4] | LD50 ([5]; intravenous injection) | LD50 ([5]; ip, intraperitoneal injection) | LD50 ([5]; sc, subcutaneous injection) |
| --- | --- | --- | --- | --- | --- | --- | --- | --- | --- | --- | --- | --- | --- |
| Cn1nnnc1SCC1=C(C(=O)[O-])N2C(=O)[C@@H](NC(=O)[C@H](OC=O)c3ccccc3)[C@H]2SC1.[Na+] [Cefamandole Nafate, (6R, 7R)-7-R-(2-formyloxy-2-phenylacetamide)-3-[[(1-methyl-1H-tetrazol-5-yl)thio]methyl]-8-oxo-5-thia-1-azabicyclo [4.2.0] oct-2-ene-2-carboxylate sodium salt] | increased | low | deepened and accelerated | did not change significantly | death occurred | significantly decreased | prolonged in P-R interval, depressed in ST segment, and ventricular arrhythmias | inhibited | – | – | – | – | – |
| Cn1nnnc1SCC1=C(C(=O)[O-])N2C(=O)[C@@H](NC(=O)[C@H](OC=O)c3ccccc3)[C@H]2SC1.[Na+] [Example 1, (6R, 7R)-7-R-(2-formyloxy-2-phenylacetamide)-3-[[(1-methyl-1H-tetrazol-5-yl)thio]methyl]-8-oxo-5-thia-1-azabicyclo [4.2.0] oct-2-ene-2-carboxylate sodium salt] | – | – | – | – | – | – | – | – | 3420 mg/kg | without degradation | 4220 mg/kg | 4500 mg/kg | 7260 mg/kg |

Source: patent US9834567B1, “Crystalline form of cefamandole nafate compound, preparation and preparing method thereof” (TIANJIN UNIVERSITY, priority 2014, dated 2017)
